US4425356A, “Lankacidin derivatives used in swine husbandry” (Takeda Chemical Industries, Ltd., priority 1980, dated 1984)

Assays:
[1] = test system: Treponema hyodysenteriae; assay: efficacy in experimental infection in mice with swine dysentery, Test Example 4; assay type: in vivo; settings: 5 mg/kg/day oral, day 1 to day 4; seven days after infection
Description: Lankacidin A, lankacidin C, lankacidin C 8-acetate, lankacidin C 14-propionate, lankacidinol A and lankacidinol were tested for efficacy against swine dysentery in experimental infection in mice with swine dysentery.
The similar experimental infection model of swine dysentery in mice as that described, for example, by Joens et al. in Infection and Immunity, 25, 757-760 (1979), American Journal of Veterinary Research, 41, 1225-1226 (1980) and Veterinary Record, 107, 527-529 (1980) was used. Thus, a field isolate of Treponema hyodysenteriae anaerobically cultivated on the 5% defibrinated horse blood added Trypticase soy agar (BBL) plate was mashed together with the culture medium and diluted two-fold with Trypticase soy broth (BBL). Mice were inoculated intragastrically with this infecting dilution. Each test agent was suspended in 5% gum arabic solution and forcibly administered orally from day 1 to day 4 following infection. Seven days after infection, the cecum was examined for lesions, and the cecum was mashed together with the contents and subjected to Treponema hyodysenteriae counting. Excellent efficacy was produced in each of the drug-administered groups.

[2] = growth of pigs, 5-month continuous dietary administration, Test Examples 10-11; assay type: in vivo, Landrace pigs; settings: for Body weight at end / Body weight at feed exchange / Body weight gain for starter feed period / Body weight gain for whole period / Feed conversion for starter feed period / Feed conversion for whole period / Feed intake for starter feed period / Feed intake for whole period: mean per head; for growth and feed efficiency (in words): dietary, 5 months
Description: Effects of compound (I) on the growth of pigs under the conditions in which swine dysentery was absent were examined. Thus, 40 one-month-old Landrace pigs (5 litters) were used in groups each consisting of 8 (4 males and 4 females). Lankacidin C was added in concentrations of 0 (control), 1, 2.5, 5 and 10 ppm to antibacterial agent-free starter feed for the period from the start of the test through the age of 3 months and to the feed for testing pigs for performance of meat production (also free of antibacterial agents) for the period from the age of 4 months to the age of 6 months (end). Thus, in each group, dietary lankacidin C was administered continuously for 5 months.
The data are each the mean value per head. Different alphabetic letters o
Fourty-eight 35-day-old Landrace pigs (6 litters) were used in 6 groups each consisting of 8 (4 males and 4 females). Lankacidin A was added in concentrations of 0 (control), 1, 2.5, 5, 10 and 20 ppm to antibacterial agent-free starter feed for the period from the start of the test through the age of 3 months and to the feed for testing pigs for performance of meat production (also free of antibacterial agents) for the period from the age of 4 months to the age of 6 months (end).

CC(=O)OC1C=CC(C)=CCC(O)C=CC(C)=CC(NC(=O)C(C)=O)C2(C)C(=O)OC(C1)C(C)C2=O (stereo not drawn) [Lankacidin A, lankacidin A]
Number of mice from which the pathogen was detected/number of mice tested [1]: 1/5
Number of mice with cecal lesions/number of mice tested [1]: 0/5
Body weight at end ([2]; 1 ppm in feed): 111.6 kg
Body weight at feed exchange ([2]; 1 ppm in feed): 34.0 kg
Body weight gain for starter feed period ([2]; 1 ppm in feed): 24.8 kg
Body weight gain for whole period ([2]; 1 ppm in feed): 102.4 kg
Feed conversion for starter feed period ([2]; 1 ppm in feed): 1.94
Feed conversion for whole period ([2]; 1 ppm in feed): 2.88
Feed intake for starter feed period ([2]; 1 ppm in feed): 48.1 kg
Feed intake for whole period ([2]; 1 ppm in feed): 294.9 kg
Body weight at end ([2]; 2.5 ppm in feed): 113.5 kg
Body weight at feed exchange ([2]; 2.5 ppm in feed): 34.6 kg
Body weight gain for starter feed period ([2]; 2.5 ppm in feed): 25.4 kg
Body weight gain for whole period ([2]; 2.5 ppm in feed): 104.4 kg
Feed conversion for starter feed period ([2]; 2.5 ppm in feed): 1.87
Feed conversion for whole period ([2]; 2.5 ppm in feed): 2.83
Feed intake for starter feed period ([2]; 2.5 ppm in feed): 47.6 kg
Feed intake for whole period ([2]; 2.5 ppm in feed): 295.3 kg
Body weight at end ([2]; 5 ppm in feed): 118.3 kg
Body weight at feed exchange ([2]; 5 ppm in feed): 36.1 kg
Body weight gain for starter feed period ([2]; 5 ppm in feed): 26.9 kg
Body weight gain for whole period ([2]; 5 ppm in feed): 109.1 kg
Feed conversion for starter feed period ([2]; 5 ppm in feed): 1.77
Feed conversion for whole period ([2]; 5 ppm in feed): 2.79
Feed intake for starter feed period ([2]; 5 ppm in feed): 47.6 kg
Feed intake for whole period ([2]; 5 ppm in feed): 304.3 kg
Body weight at end ([2]; 10 ppm in feed): 120.5 kg
Body weight at feed exchange ([2]; 10 ppm in feed): 36.7 kg
Body weight gain for starter feed period ([2]; 10 ppm in feed): 27.6 kg
Body weight gain for whole period ([2]; 10 ppm in feed): 111.4 kg
Feed conversion for starter feed period ([2]; 10 ppm in feed): 1.73
Feed conversion for whole period ([2]; 10 ppm in feed): 2.74
Feed intake for starter feed period ([2]; 10 ppm in feed): 47.7 kg
Feed intake for whole period ([2]; 10 ppm in feed): 305.2 kg
Body weight at end ([2]; 20 ppm in feed): 123.4 kg
Body weight at feed exchange ([2]; 20 ppm in feed): 37.4 kg
Body weight gain for starter feed period ([2]; 20 ppm in feed): 28.8 kg
Body weight gain for whole period ([2]; 20 ppm in feed): 114.2 kg
Feed conversion for starter feed period ([2]; 20 ppm in feed): 1.71
Feed conversion for whole period ([2]; 20 ppm in feed): 2.72
Feed intake for starter feed period ([2]; 20 ppm in feed): 48.2 kg
Feed intake for whole period ([2]; 20 ppm in feed): 310.6 kg
growth and feed efficiency (in words) [2]: Swine growth was promoted proportionally to the increase of level of addition of lankacidin A, and the feed efficiency was improved accordingly

CC(=O)C(=O)NC1C=C(C)C=CC(O)CC=C(C)C=CC(O)CC2OC(=O)C1(C)C(=O)C2C (stereo not drawn) [Lankacidin C, lankacidin C]
Number of mice from which the pathogen was detected/number of mice tested [1]: 1/5
Number of mice with cecal lesions/number of mice tested [1]: 0/5
Body weight at end ([2]; 1 ppm in feed): 102.4 kg
Body weight at feed exchange ([2]; 1 ppm in feed): 32.7 kg
Body weight gain for starter feed period ([2]; 1 ppm in feed): 25.4 kg
Body weight gain for whole period ([2]; 1 ppm in feed): 95.0 kg
Feed conversion for starter feed period ([2]; 1 ppm in feed): 1.95
Feed conversion for whole period ([2]; 1 ppm in feed): 2.90
Feed intake for starter feed period ([2]; 1 ppm in feed): 49.4 kg
Feed intake for whole period ([2]; 1 ppm in feed): 275.6 kg
Body weight at end ([2]; 2.5 ppm in feed): 104.6 kg
Body weight at feed exchange ([2]; 2.5 ppm in feed): 34.2 kg
Body weight gain for starter feed period ([2]; 2.5 ppm in feed): 26.9 kg
Body weight gain for whole period ([2]; 2.5 ppm in feed): 97.2 kg
Feed conversion for starter feed period ([2]; 2.5 ppm in feed): 1.83
Feed conversion for whole period ([2]; 2.5 ppm in feed): 2.86
Feed intake for starter feed period ([2]; 2.5 ppm in feed): 49.1 kg
Feed intake for whole period ([2]; 2.5 ppm in feed): 278.0 kg
Body weight at end ([2]; 5 ppm in feed): 109.0 kg
Body weight at feed exchange ([2]; 5 ppm in feed): 36.9 kg
Body weight gain for starter feed period ([2]; 5 ppm in feed): 29.5 kg
Body weight gain for whole period ([2]; 5 ppm in feed): 101.7 kg
Feed conversion for starter feed period ([2]; 5 ppm in feed): 1.72
Feed conversion for whole period ([2]; 5 ppm in feed): 2.80
Feed intake for starter feed period ([2]; 5 ppm in feed): 50.7 kg
Feed intake for whole period ([2]; 5 ppm in feed): 284.6 kg
Body weight at end ([2]; 10 ppm in feed): 110.2 kg
Body weight at feed exchange ([2]; 10 ppm in feed): 37.5 kg
Body weight gain for starter feed period ([2]; 10 ppm in feed): 30.1 kg
Body weight gain for whole period ([2]; 10 ppm in feed): 102.8 kg
Feed conversion for starter feed period ([2]; 10 ppm in feed): 1.70
Feed conversion for whole period ([2]; 10 ppm in feed): 2.77
Feed intake for starter feed period ([2]; 10 ppm in feed): 51.2 kg
Feed intake for whole period ([2]; 10 ppm in feed): 284.8 kg
growth and feed efficiency (in words) [2]: growth of pigs was increased in a manner almost proportional to the level of addition of lankacidin C, and accordingly the feed efficiency was improved
